Measurements as given in publication PMC9518264, “Design and synthesis of novel quinazolinone-based derivatives as EGFR inhibitors with antitumor activity” (Journal of Enzyme Inhibition and Medicinal Chemistry, 2022).

Assays:
[1] = system: A549/ATCC; assay: cells; type: cell-based; details: Homo sapiens; A549/ATCC; 10 μM; read-out: growth inhibition % (GI%)
[2] = system: DU-145; assay: cells; type: cell-based; details: Homo sapiens; DU-145; 10 μM; read-out: growth inhibition % (GI%)
[3] = system: MOLT-4; assay: cells; type: cell-based; details: Homo sapiens; MOLT-4; 10 μM; read-out: growth inhibition % (GI%)
[4] = system: KM12; assay: cells; type: cell-based; details: Homo sapiens; KM12; 10 μM; read-out: growth inhibition % (GI%)
[5] = system: UACC-257; assay: cells; type: cell-based; details: Homo sapiens; UACC-257; 10 μM; read-out: growth inhibition % (GI%)
[6] = system: HCT-15; assay: cells; type: cell-based; details: Homo sapiens; HCT-15; 10 μM; read-out: growth inhibition % (GI%)
[7] = system: SK-MEL-5; assay: cells; type: cell-based; details: Homo sapiens; SK-MEL-5; 10 μM; read-out: growth inhibition % (GI%)
[8] = system: SK-MEL-2; assay: cells; type: cell-based; details: Homo sapiens; SK-MEL-2; 10 μM; read-out: growth inhibition % (GI%)
[9] = system: HS 578T; assay: cells; type: cell-based; details: Homo sapiens; HS 578T; 10 μM; read-out: growth inhibition % (GI%)
[10] = system: NCI/ADR-RES; assay: cells; type: cell-based; details: Homo sapiens, 10 μM, read-out: growth inhibition % (GI%)
[11] = system: K-562; assay: cells; type: cell-based; details: Homo sapiens, K562; K-562; 10 μM; read-out: growth inhibition % (GI%)
[12] = system: OVCAR-3; assay: NCI 60 cell line antiproliferative screening (SRB), Ovarian cancer; details: Homo sapiens, OVCAR-3, read-out: growth inhibition % (GI%)
[13] = system: SNB-75; assay: cells; type: cell-based; details: Homo sapiens; SNB-75; 10 μM; read-out: growth inhibition % (GI%)
[14] = system: MDA-MB-231/ATCC; assay: NCI 60 cell line antiproliferative screening (SRB), Breast cancer; type: cell-based; details: Homo sapiens, MDA-MB-231, read-out: growth inhibition % (GI%)
[15] = system: NCI-H322M; assay: cells; type: cell-based; details: Homo sapiens, 10 μM, read-out: growth inhibition % (GI%)
[16] = system: SW-620; assay: cells; type: cell-based; details: Homo sapiens; SW-620; 10 μM; read-out: growth inhibition % (GI%)
[17] = system: BT-549; assay: cells; type: cell-based; details: Homo sapiens; BT-549; 10 μM; read-out: growth inhibition % (GI%)
[18] = system: SF-539; assay: cells; type: cell-based; details: Homo sapiens; SF-539; 10 μM; read-out: growth inhibition % (GI%)
[19] = system: HCC-2998; assay: cells; type: cell-based; details: Homo sapiens; HCC-2998; 10 μM; read-out: growth inhibition % (GI%)
[20] = system: SK-OV-3; assay: cells; type: cell-based; details: Homo sapiens; SK-OV-3; 10 μM; read-out: growth inhibition % (GI%)
[21] = system: SNB-19; assay: cells; type: cell-based; details: Homo sapiens; SNB-19; 10 μM; read-out: growth inhibition % (GI%)
[22] = system: COLO-205; assay: cells; type: cell-based; details: Homo sapiens; COLO-205; 10 μM; read-out: growth inhibition % (GI%)
[23] = system: CCRF-CEM; assay: cells; type: cell-based; details: Homo sapiens, 10 μM, read-out: growth inhibition % (GI%)
[24] = system: OVCAR-5; assay: cells; type: cell-based; details: Homo sapiens; OVCAR-5; 10 μM; read-out: growth inhibition % (GI%)
[25] = system: NCI-H226; assay: cells; type: cell-based; details: Homo sapiens; NCI-H226; 10 μM; read-out: growth inhibition % (GI%)
[26] = system: MCF7; assay: cells; type: cell-based; details: Homo sapiens; MCF7; 10 μM; read-out: growth inhibition % (GI%)
[27] = system: panel of 60 tumour cell lines; assay: NCI 60 cell line antiproliferative screening (SRB), whole panel or subpanels (means, ranges, words); type: cell-based, human
[28] = system: SF-268; assay: cells; type: cell-based; details: Homo sapiens; SF-268; 10 μM; read-out: growth inhibition % (GI%)
[29] = system: RPMI-8226; assay: cells; type: cell-based; details: Homo sapiens; RPMI-8226; 10 μM; read-out: growth inhibition % (GI%)
[30] = system: 786-0; assay: cells; type: cell-based; details: Homo sapiens; 786-0; 10 μM; read-out: growth inhibition % (GI%)
[31] = system: LOX IMIV; assay: cells; type: cell-based; details: Homo sapiens, 60 cell; LOX IMIV; 10 μM; read-out: growth inhibition % (GI%)
[32] = system: SK-MEL-28; assay: cells; type: cell-based; details: Homo sapiens; SK-MEL-28; 10 μM; read-out: growth inhibition % (GI%)
[33] = system: T-47D; assay: cells; type: cell-based; details: Homo sapiens, T47D; T-47D; 10 μM; read-out: growth inhibition % (GI%)
[34] = system: NCI-H522; assay: cells; type: cell-based; details: Homo sapiens; NCI-H522; 10 μM; read-out: growth inhibition % (GI%)
[35] = system: MALME-3M; assay: cells; type: cell-based; details: Homo sapiens; MALME-3M; 10 μM; read-out: growth inhibition % (GI%)
[36] = system: HCT-116; assay: cells; type: cell-based; details: Homo sapiens; HCT-116; 10 μM; read-out: growth inhibition % (GI%)
[37] = system: EKVX; assay: cells; type: cell-based; details: Homo sapiens, 10 μM, read-out: growth inhibition % (GI%)
[38] = system: U251; assay: cells; type: cell-based; details: Homo sapiens, U-251; U251; 10 μM; read-out: growth inhibition % (GI%)
[39] = system: A498; assay: cells; type: cell-based; details: Homo sapiens; A498; 10 μM; read-out: growth inhibition % (GI%)
[40] = system: IGROV1; assay: cells; type: cell-based; details: Homo sapiens, IGROV-1; IGROV1; 10 μM; read-out: growth inhibition % (GI%)
[41] = system: ACHN; assay: cells; type: cell-based; details: Homo sapiens, 10 μM, read-out: growth inhibition % (GI%)
[42] = system: HOP-62; assay: cells; type: cell-based; details: Homo sapiens; HOP-62; 10 μM; read-out: growth inhibition % (GI%)
[43] = system: OVCAR-4; assay: cells; type: cell-based; details: Homo sapiens; OVCAR-4; 10 μM; read-out: growth inhibition % (GI%)
[44] = system: SR; assay: cells; type: cell-based; details: Homo sapiens, 10 μM, read-out: growth inhibition % (GI%)
[45] = system: TK-10; assay: cells; type: cell-based; details: Homo sapiens; TK-10; 10 μM; read-out: growth inhibition % (GI%)
[46] = system: HOP-92; assay: cells; type: cell-based; details: Homo sapiens; HOP-92; 10 μM; read-out: growth inhibition % (GI%)

SMILES: CN1CCN(c2ccc(C=NNC(=O)CSc3nc4ccccc4c(=O)n3-c3ccc(Cl)cc3)cc2)CC1 [6l, 2-((3–(4-chlorophenyl)-4-oxo-3,4-dihydroquinazolin-2-yl)thio)-N'-(4–(4-methylpiperazin-1-yl)benzylidene)acetohydrazide]
- inhibition at 10 µM [1]: < 15%
- inhibition at 10 µM [2]: < 15%
- inhibition at 10 µM [3]: < 15%
- inhibition at 10 µM [4]: < 15%
- inhibition at 10 µM [5]: < 15%
- inhibition at 10 µM [6]: < 15%
- inhibition at 10 µM [7]: < 15%
- inhibition at 10 µM [8]: < 15%
- inhibition at 10 µM [9]: < 15%
- inhibition at 10 µM [10]: < 15%
- inhibition at 10 µM [11]: < 15%
- inhibition at 10 µM [12]: < 15%
- inhibition at 10 µM [13]: < 15%
- inhibition at 10 µM [14]: < 15%
- inhibition at 10 µM [15]: < 15%
- inhibition at 10 µM [16]: < 15%
- inhibition at 10 µM [17]: < 15%
- inhibition at 10 µM [18]: < 15%
- inhibition at 10 µM [19]: < 15%
- inhibition at 10 µM [20]: < 15%
- inhibition at 10 µM [21]: < 15%
- inhibition at 10 µM [22]: < 15%
- inhibition at 10 µM [23]: < 15%
- inhibition at 10 µM [24]: < 15%
- inhibition at 10 µM [25]: < 15%
- inhibition at 10 µM [26]: < 15%
- antiproliferative activity against all tested cell lines ([27]; 10 μM single dose): did not show activity
- inhibition at 10 µM ([27]; Homo sapiens, 60 cell, mean over the cell line panel, 10 μM, read-out: Mean growth inhibition % (mean GI%)): < 0%
- inhibition at 10 µM [28]: < 15%
- inhibition at 10 µM [29]: < 15%
- inhibition at 10 µM [30]: < 15%
- inhibition at 10 µM [31]: 15.2%
- inhibition at 10 µM [32]: < 15%
- inhibition at 10 µM [33]: < 15%
- inhibition at 10 µM [34]: < 15%
- inhibition at 10 µM [35]: < 15%
- inhibition at 10 µM [36]: < 15%
- inhibition at 10 µM [37]: < 15%
- inhibition at 10 µM [38]: < 15%
- inhibition at 10 µM [39]: 32.6%
- inhibition at 10 µM [40]: < 15%
- inhibition at 10 µM [41]: < 15%
- inhibition at 10 µM [42]: < 15%
- inhibition at 10 µM [43]: < 15%
- inhibition at 10 µM [44]: < 15%
- inhibition at 10 µM [45]: < 15%
- inhibition at 10 µM [46]: < 15%
